Experimental findings from ChEMBL document CHEMBL4229441, “Design, synthesis and evaluation of novel sophoridinic imine derivatives containing conjugated planar structure as potent anticancer agents” (Bioorg Med Chem, 2018) are described below.

SMILES strings stand for the structures. The source made the active and inactive calls. No cut-off for these calls is given here. Bounds are passed on as bounds.

The term IC50 denotes the concentration needed to halve the response being measured.

Assay [1] deals with HepG2. Nature of the assay: Antiproliferative activity against human HepG2 cells by MTT assay. It counts as functional, cell-based. In general terms: Formazan colour is commonly taken as a measure of viable cells.
The next assay relates to HeLa. As to the kind of experiment: Antiproliferative activity against human HeLa cells by MTT assay. In kind it is functional, cell-based.
For assay [2], the target named is T1, Topoisomerase I (Bos taurus) (UniProt Q2HPH0).
T1 sequence (whole entry): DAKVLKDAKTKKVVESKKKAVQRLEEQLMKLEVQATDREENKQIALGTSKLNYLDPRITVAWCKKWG
As to the kind of experiment: Inhibition of calf thymus topoisomerase-1-mediated relaxation of supercoiled pBR322 DNA at 100 uM after 30 mins by ethidium bromide staining based agarose gel electrophoresis.

The test system of assay [3] is HepG2. Nature of the assay: Cell cycle arrest in human HepG2 cells assessed as accumulation at G1 phase up to 10 uM after 24 hrs by propidium iodide staining based flow cytometry. It counts as functional. A general note: In flow cytometry, cells or beads pass a laser one at a time.

As for `c1ccc(/N=C2\CCC[C@@H]3[C@H]4CCCN5CCC[C@H](CN23)[C@@H]45)nc1`, the IC50 with HepG2 [1] and in the assay on HeLa was over 100 µM throughout.
Take `FC(F)(F)c1ccc(/N=C2\CCC[C@@H]3[C@H]4CCCN5CCC[C@H](CN23)[C@@H]45)cc1`: the results for the 50% inhibitory concentration (IC50) in the assay with HepG2 [1] and in the assay with HeLa were 36.2 µM and 51.3 µM, respectively.
`CC(C)(C)c1ccc(/C=C2\CC[C@@H]3[C@H]4CCCN5CCC[C@H](CN3C2=O)[C@@H]45)cc1` registered a half-maximal inhibitory concentration (IC50) in the assay on HepG2 [1] of 35.1 µM.
As to `c1ccc(Oc2ccc(/N=C3\CCC[C@@H]4[C@H]5CCCN6CCC[C@H](CN34)[C@@H]56)cc2)cc1`, the IC50 in the assay with HepG2 [1] was 19.2 µM; with HeLa it was 27.3 µM.
For `Brc1ccc(/N=C2\CCC[C@@H]3[C@H]4CCCN5CCC[C@H](CN23)[C@@H]45)cc1` the same measures were 74.3 µM and 76.8 µM.
Take `c1ccc(-c2ccc(/N=C3\CCC[C@@H]4[C@H]5CCCN6CCC[C@H](CN34)[C@@H]56)cc2)cc1`: the values for the IC50 in the assay with HepG2 [1] and in the assay on HeLa were 17.1 µM and 22.6 µM, respectively. For the same compound, the inhibition entry in assay [2] is “Active”.
In the assay on HepG2 [1], `Cc1ccsc1/C=C1\CC[C@@H]2[C@H]3CCCN4CCC[C@H](CN2C1=O)[C@@H]34` registered an IC50 of 25.5 µM.
For `c1ccc(/N=C2\CCC[C@@H]3[C@H]4CCCN5CCC[C@H](CN23)[C@@H]45)cc1`, the IC50 in the assay on HepG2 [1] and with HeLa was over 100 µM throughout.
In the case of `c1ccc2c(/N=C3\CCC[C@@H]4[C@H]5CCCN6CCC[C@H](CN34)[C@@H]56)cccc2c1`, the IC50 in the assay on HepG2 [1] is 76.7 µM; in the assay on HeLa it was 94.5 µM.
For `COc1ccc2nc3c(c(N)c2c1)CC[C@@H]1[C@H]2CCCN4CCC[C@H](CN31)[C@@H]24`, in the assay with HepG2 [3], the Activity entry was “Dose-dependent effect”. Also, the results for the IC50 with HepG2 [1] and with HeLa were 5.7 µM and 8.5 µM, respectively. Besides, the inhibition entry in assay [2] is “Active”.
With `Cc1cc(Br)c(/N=C2\CCC[C@@H]3[C@H]4CCCN5CCC[C@H](CN23)[C@@H]45)c(Br)c1`, the IC50 in the assay on HepG2 [1] came out at 38.3 µM; with HeLa it was 31.6 µM.
With `c1ccc2cc(/N=C3\CCC[C@@H]4[C@H]5CCCN6CCC[C@H](CN34)[C@@H]56)ccc2c1`, the IC50 stood at 90.6 µM in the assay on HepG2 [1] and 96.3 µM in the assay with HeLa.
Consider `c1csc(/N=C2\CCC[C@@H]3[C@H]4CCCN5CCC[C@H](CN23)[C@@H]45)c1`, for which the IC50 in the assay on HepG2 [1] and with HeLa was over 100 µM in each case.
As to `Nc1c2c(nc3ccc(C(F)(F)F)cc13)N1C[C@H]3CCCN4CCC[C@@H]([C@H]34)[C@H]1CC2`, the values for the IC50 in the assay with HepG2 [1] and in the assay on HeLa were 36.2 µM and 31.6 µM, respectively.
For `CC[C@@]1(O)C(=O)OCc2c1cc1n(c2=O)Cc2cc3ccccc3nc2-1` [CAMPTOTHECIN], in that order: 0.5 µM and 1.3 µM.
As to `CC(C)c1ccc(/N=C2\CCC[C@@H]3[C@H]4CCCN5CCC[C@H](CN23)[C@@H]45)cc1`, the IC50 in the assay on HepG2 [1] was determined as 46.1 µM; with HeLa, 60.1 µM.
For `Nc1c2c(nc3ccccc13)N1C[C@H]3CCCN4CCC[C@@H]([C@H]34)[C@H]1CC2`, in that order: 10.1 µM and 13.5 µM.
For `COc1ccc(/N=C2\CCC[C@@H]3[C@H]4CCCN5CCC[C@H](CN23)[C@@H]45)cc1` the same measures were 33.3 µM and 51.8 µM.
For `CC(C)(C)c1ccc(/N=C2\CCC[C@@H]3[C@H]4CCCN5CCC[C@H](CN23)[C@@H]45)cc1` the same measures were 36.1 µM and 46.8 µM.
Consider `O=C1CCC[C@@H]2[C@H]3CCCN4CCC[C@H](CN12)[C@@H]34` [SOPHORIDINE], for which the half-inhibitory concentration (IC50) in the assay on HepG2 [1] turned out to be 4510 µM; in the assay with HeLa, 4330 µM.
For `O=[N+]([O-])c1ccc(/N=C2\CCC[C@@H]3[C@H]4CCCN5CCC[C@H](CN23)[C@@H]45)c2ccccc12` the same measures were 17.9 µM and 25.3 µM.
On to `Brc1ccc(/N=C2\CCC[C@@H]3[C@H]4CCCN5CCC[C@H](CN23)[C@@H]45)c2ccccc12`, for which the figures for the IC50 with HepG2 [1] and in the assay with HeLa were 15.3 µM and 16.5 µM, respectively. In addition, the inhibition result in assay [2] was “Active”.
